Test results taken from ChEMBL document CHEMBL1201862, “PubChem BioAssay data set” (2004).
Active and inactive are the calls of the source.

Tests used:
[1] = biological target: Mothers against decapentaplegic homolog 3 (Homo sapiens, UniProt P84022); assay: Smad3 binding inhibitors, lysate ELISA, dose response, cell lysate, secondary confirmation, chemiluminescent ELISA, HEK293 lysate (AID 1058); assay type: functional
[2] = cytotoxicity in HPDE-C7 cells, cell-based, fluorescence, HTS (AID 430); assay type: functional; conditions: Homo sapiens
[3] = cytotoxicity toward NIH3T3 fibroblasts, dose response, counter-screen, cell-based, ATP luminescence, mouse fibroblasts (AID 2010); assay type: functional;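 note: cells exposed to compound for about 90 hours before reading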
[4] = biological target: Serine/threonine-protein phosphatase PP1-alpha catalytic subunit (Homo sapiens, UniProt P62136); assay: PP1 phosphatase inhibitors, dose response, biochemical, fluorescence (AID 2403);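 note: phosphatase turnover of OMFP into fluorescent 3-O-methylfluorescein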
Serine/threonine-protein phosphatase PP1-alpha catalytic subunit, sequence (P62136 whole entry): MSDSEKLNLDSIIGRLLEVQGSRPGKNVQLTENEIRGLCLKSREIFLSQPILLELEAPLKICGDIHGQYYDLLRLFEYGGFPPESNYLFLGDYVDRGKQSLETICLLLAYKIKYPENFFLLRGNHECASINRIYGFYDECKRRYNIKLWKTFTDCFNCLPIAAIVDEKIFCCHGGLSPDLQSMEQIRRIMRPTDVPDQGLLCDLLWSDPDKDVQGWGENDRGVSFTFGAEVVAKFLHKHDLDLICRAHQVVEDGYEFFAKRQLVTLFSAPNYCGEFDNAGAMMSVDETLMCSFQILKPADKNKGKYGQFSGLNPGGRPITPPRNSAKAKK

[5] = HepG2 cell cytotoxicity, dose response, cytotoxicity control for Shn3 inhibitor project, CellTiter-Glo, cherry-picked (AID 624134); assay type: functional, cell-based
[6] = control 3'UTR Renilla luciferase suppression, dose response, counter-screen for Shn3 inhibitor project, cell-based, Clone20-Shn3RL, cherry-picked (AID 624133); assay type: functional
[7] = biological target: T1, Serine/threonine-protein phosphatase (Homo sapiens, UniProt Q9BPW0); assay: Counterscreen for inhibitors of PP1: fluorescence-based biochemical high throughput dose response assay to identify inhibitors of Protein Phosphatase 5 (PP5). [Related pubchem assays: 2034 (Summary (PP5 inhibitors)), 1987 (PP5 inhibitors in singlate), 2235 (PP1 inhibitors in singlate)]
T1 sequence (Q9BPW0 whole entry): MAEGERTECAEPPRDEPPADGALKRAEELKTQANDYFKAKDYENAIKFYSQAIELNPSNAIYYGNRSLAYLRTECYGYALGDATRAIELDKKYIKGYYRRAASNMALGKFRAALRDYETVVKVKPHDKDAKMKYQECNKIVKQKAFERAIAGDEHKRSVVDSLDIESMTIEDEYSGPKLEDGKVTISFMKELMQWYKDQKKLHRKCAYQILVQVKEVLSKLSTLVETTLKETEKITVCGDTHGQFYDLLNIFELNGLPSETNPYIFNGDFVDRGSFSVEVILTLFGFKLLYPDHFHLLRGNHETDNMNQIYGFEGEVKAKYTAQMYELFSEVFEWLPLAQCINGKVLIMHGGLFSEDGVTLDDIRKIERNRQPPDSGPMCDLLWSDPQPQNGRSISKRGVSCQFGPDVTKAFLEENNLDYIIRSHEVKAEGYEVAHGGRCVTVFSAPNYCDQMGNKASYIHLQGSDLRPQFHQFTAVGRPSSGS

[8] = tested on: Streptococcus sp. 'group A'; assay: growth inhibition of control SK(-) GAS strain, dose response, counter-screen for streptokinase expression inhibitor project, luminescence, kanamycin, BacTiterGlo, confirmation (AID 1900); assay type: functional, organism-based
[9] = Artemis endonuclease inhibitor potency, dose response, biochemical, fluorescence intensity (AID 720701); assay type: functional;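 note: Artemis endonuclease enzyme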
Streptococcus = assay: Group A Streptococcus viability loss, dose response, counter-screen for streptokinase expression inhibitor project, luminescence, BacTiterGlo (AID 1915); assay type: functional, organism-based;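 note: potency for reduction of bacterial viability or growth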
Streptokinase A = biological target: T2, Streptokinase A (Streptococcus pyogenes serotype M1, UniProt P10520); assay: S. pyogenes streptokinase expression inhibitors, potency, dose response, plasminogen activation absorbance, OD405 (AID 1914); assay type: functional, Streptococcus pyogenes M1 GAS;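 note: secreted streptokinase activity via plasminogen activation per viability signal from cell pellet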
T2 sequence (P10520 whole entry): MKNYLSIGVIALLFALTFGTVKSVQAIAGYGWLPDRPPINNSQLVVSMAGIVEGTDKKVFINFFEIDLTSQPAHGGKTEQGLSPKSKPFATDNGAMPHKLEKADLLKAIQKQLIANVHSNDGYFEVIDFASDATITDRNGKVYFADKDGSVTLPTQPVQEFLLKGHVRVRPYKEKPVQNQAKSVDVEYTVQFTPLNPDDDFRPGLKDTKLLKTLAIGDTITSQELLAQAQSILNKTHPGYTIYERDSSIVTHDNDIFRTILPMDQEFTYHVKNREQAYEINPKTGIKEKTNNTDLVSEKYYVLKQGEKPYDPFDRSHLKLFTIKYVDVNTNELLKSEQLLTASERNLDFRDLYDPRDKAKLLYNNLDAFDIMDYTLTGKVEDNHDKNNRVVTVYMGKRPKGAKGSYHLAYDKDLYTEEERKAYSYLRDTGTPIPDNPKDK

cells [10] = assay type: functional, cell-based
[11] = Shn3 3'UTR reporter inhibitors, dose response, cell-based, Clone20 osteoblasts, firefly luciferase, cherry-picked (AID 624132); assay type: functional;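 note: firefly luciferase luminescence from reporter carrying the Shn3 3'UTR in osteoblasts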
[12] = HepG2 cell cytotoxicity, dose response, cytotoxicity control, ATP luminescence, cherry-pick, activator set 2 (AID 1053143); assay type: functional, cell-based
[13] = cytotoxicity in KRAS-transformed pancreatic duct cells, primary screen, cell-based, fluorescence, HTS (AID 431); assay type: functional; conditions: Homo sapiens;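 note: cell line used: HPDE-C7K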
INS1 = assay: beta cell apoptosis inhibitors, cytokine rescue, dose response, luminescence, retest (AID 449756); assay type: functional, cell-based; conditions: Rattus norvegicus;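 note: cell death triggered by IL-1 beta plus TNF-alpha plus IFN-gamma mixture; protective hits raise ATP signal compared with cytokine alone wells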
cells [14] = assay type: functional, cell-based; remark: listed apart in the source
Nonstructural protein 1 = Nonstructural protein 1 (Influenza A virus, UniProt Q194T2); assay type: functional, Influenza A virus (A/California/07/2009(H1N1))
Nonstructural protein 1, sequence (Q194T2 whole entry): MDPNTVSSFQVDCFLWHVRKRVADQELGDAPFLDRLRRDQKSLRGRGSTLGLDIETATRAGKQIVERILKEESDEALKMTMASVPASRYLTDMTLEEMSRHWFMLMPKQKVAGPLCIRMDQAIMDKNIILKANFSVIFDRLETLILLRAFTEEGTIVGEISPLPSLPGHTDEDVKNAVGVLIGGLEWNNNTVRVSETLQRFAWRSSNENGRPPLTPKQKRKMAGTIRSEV

[15] = inhibitors of intracellular T. cruzi replication, confirmation, NIH3T3 host cells, beta-gal luminescence (AID 2044); assay type: functional, cell-based;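 note: intracellular parasites grown in NIH/3T3 mouse fibroblasts as host cells; luminescent beta-galactosidase reporter signal from transgenic T. cruzi replicating inside host cells; inhibitors lower the luminescence signal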
[16] = Luminescence Cell-Based Dose-Confimation HTS to Identify Inhibitors of 5'UTR Stem-Loop Driven Alpha-Synuclein mRNA Translation in H4 Neuroglioblastoma Cells. [Related pubchem assays: 1827 (Project Summary), 1813 (Primary HTS)]; assay type: functional
[17] = Luminescence-based dose response cell-based high throughput screening assay for cytotoxic compounds using the IEC-6 intestinal epithelial cell line. [Related pubchem assays: 1858 (Summary AID.), 1825 (Counterscreen.), 1907 (Confirmation screen.)]; assay type: functional
Beta-galactosidase = Beta-galactosidase (Escherichia coli, UniProt Q8VNN2); assay: PubChem AID 485352; assay type: functional
Beta-galactosidase, sequence (Q8VNN2 whole entry): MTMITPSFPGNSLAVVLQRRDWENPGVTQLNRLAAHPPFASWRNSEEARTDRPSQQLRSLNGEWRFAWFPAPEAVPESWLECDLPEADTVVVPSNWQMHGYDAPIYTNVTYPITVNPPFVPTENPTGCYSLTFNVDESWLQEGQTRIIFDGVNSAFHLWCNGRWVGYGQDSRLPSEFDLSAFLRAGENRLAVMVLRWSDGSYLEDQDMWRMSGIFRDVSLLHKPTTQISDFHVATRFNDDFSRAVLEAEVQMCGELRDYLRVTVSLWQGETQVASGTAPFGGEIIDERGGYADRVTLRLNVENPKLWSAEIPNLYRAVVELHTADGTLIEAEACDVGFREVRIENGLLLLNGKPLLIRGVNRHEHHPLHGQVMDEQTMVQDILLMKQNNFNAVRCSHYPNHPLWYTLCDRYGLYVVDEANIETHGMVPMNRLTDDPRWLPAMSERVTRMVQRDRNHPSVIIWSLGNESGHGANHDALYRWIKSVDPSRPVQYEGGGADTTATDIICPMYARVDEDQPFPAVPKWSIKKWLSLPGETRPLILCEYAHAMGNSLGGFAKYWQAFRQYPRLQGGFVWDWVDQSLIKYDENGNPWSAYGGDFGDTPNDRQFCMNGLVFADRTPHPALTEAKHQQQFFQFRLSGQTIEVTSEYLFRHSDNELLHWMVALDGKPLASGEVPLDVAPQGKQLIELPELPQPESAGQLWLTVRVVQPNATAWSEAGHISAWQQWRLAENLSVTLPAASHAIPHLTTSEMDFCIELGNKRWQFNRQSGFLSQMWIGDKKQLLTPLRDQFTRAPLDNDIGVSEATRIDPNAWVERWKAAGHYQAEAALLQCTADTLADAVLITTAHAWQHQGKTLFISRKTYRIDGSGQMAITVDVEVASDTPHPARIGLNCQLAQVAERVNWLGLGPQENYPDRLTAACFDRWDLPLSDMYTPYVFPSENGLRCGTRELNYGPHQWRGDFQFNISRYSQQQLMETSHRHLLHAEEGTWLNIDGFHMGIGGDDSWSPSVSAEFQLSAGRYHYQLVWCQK

HeLa = assay: Cytotoxicity counterscreen assay for transcriptional activators of heat shock protein 70 (Hsp70). [Related pubchem assays: 1203, 1252 ]; assay type: functional; conditions: Homo sapiens;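 note: cells exposed to compound for 16 hours before readout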
[18] = biological target: G-protein coupled receptor 55 (Homo sapiens, UniProt Q9Y2T6); assay: GPR55 antagonists blocking LPI-driven arrestin recruitment, primary screen, imaging, U2OS, beta-arrestin-GFP, LPI agonist (AID 2013); assay type: functional;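 note: antagonist potency measured as reduced agonist-driven arrestin aggregation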
G-protein coupled receptor 55, sequence (Q9Y2T6 whole entry): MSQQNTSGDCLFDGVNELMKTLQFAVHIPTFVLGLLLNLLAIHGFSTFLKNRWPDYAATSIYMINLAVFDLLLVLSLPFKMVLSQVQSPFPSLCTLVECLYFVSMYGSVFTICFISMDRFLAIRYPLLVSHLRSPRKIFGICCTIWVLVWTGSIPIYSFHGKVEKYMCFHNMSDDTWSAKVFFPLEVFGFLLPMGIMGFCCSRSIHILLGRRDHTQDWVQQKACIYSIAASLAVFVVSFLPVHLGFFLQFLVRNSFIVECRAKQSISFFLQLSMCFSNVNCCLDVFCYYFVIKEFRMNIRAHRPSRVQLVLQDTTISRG

[19] = biological target: T3, Type-1 angiotensin II receptor (Homo sapiens, UniProt P30556); assay: AT1 receptor antagonists, dose response, selectivity assay for APJ receptor antagonist project, cell-based, uHTS hits (AID 463214); assay type: functional;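 note: antagonist potency against angiotensin II stimulated AT1 response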
T3 sequence (P30556 whole entry): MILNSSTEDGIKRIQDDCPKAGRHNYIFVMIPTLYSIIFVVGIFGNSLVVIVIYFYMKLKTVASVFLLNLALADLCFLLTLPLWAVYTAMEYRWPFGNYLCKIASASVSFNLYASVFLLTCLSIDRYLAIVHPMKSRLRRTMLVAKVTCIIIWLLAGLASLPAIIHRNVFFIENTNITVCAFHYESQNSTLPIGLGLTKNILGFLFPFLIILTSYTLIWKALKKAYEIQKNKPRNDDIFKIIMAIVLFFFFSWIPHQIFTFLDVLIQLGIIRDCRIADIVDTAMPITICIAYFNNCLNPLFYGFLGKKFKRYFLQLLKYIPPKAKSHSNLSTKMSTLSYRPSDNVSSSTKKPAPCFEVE

[20] = cytotoxicity in HEK-293T cells, dose response, cytotoxicity control for TCR NF-kB inhibitor project, luminescence, T-cell screen hits (AID 489026); assay type: functional, cell-based;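 note: cells exposed to compound about 14 hours before the viability readout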
[21] = biological target: Peroxisome proliferator-activated receptor gamma/Nuclear receptor coactivator 2 (Homo sapiens, UniProt P37231); assay type: functional;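 note: agonist potency for raising coactivator recruitment to the receptor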
[22] = biological target: Peroxisome proliferator-activated receptor gamma/Nuclear receptor coactivator 1 (Homo sapiens, UniProt P37231); assay type: functional;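 note: agonist potency as compounds enhance coactivator SRC-1 recruitment to PPARgamma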
[23] = biological target: Peroxisome proliferator-activated receptor gamma/Nuclear receptor coactivator 3 (Homo sapiens, UniProt P37231); assay type: functional;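 note: agonist potency for raising coactivator recruitment to the receptor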
[24] = biological target: T4, Heat shock 70 kDa protein 1A (Homo sapiens, UniProt P0DMV8); assay: Hsp70 inhibitors, probe displacement, primary screen, biochemical, fluorescence polarization (AID 583)
T4 sequence (P0DMV8 whole entry): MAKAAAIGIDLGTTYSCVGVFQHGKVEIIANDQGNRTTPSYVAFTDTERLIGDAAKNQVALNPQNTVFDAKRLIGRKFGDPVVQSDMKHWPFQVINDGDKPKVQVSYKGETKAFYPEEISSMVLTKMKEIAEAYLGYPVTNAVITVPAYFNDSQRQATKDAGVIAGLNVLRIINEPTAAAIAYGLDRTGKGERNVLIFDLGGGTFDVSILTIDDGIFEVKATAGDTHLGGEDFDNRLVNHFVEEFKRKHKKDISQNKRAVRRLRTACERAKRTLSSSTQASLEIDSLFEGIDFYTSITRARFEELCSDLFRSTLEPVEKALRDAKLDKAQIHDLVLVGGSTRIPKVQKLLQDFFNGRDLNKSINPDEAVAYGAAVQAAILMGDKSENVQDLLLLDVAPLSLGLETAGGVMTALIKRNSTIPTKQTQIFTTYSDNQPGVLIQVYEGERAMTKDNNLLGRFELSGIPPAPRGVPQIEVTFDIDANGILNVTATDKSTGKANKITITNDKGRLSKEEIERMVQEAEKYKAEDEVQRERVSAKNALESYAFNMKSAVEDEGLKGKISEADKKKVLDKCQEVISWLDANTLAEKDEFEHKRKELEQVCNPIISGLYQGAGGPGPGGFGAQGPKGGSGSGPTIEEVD

[25] = biological target: T4, Heat shock 70 kDa protein 1A; assay: Hsp70 inhibitors, biochemical, TR-FRET (AID 786)
[26] = biological target: T5, Eukaryotic translation initiation factor 2-alpha kinase 3 (Homo sapiens, UniProt Q9NZJ5); assay: Dose response cell-based high-throughput screening assay to measure PERK inhibition. [Related pubchem assays: 1416 ]; assay type: functional
T5 sequence (Q9NZJ5 whole entry): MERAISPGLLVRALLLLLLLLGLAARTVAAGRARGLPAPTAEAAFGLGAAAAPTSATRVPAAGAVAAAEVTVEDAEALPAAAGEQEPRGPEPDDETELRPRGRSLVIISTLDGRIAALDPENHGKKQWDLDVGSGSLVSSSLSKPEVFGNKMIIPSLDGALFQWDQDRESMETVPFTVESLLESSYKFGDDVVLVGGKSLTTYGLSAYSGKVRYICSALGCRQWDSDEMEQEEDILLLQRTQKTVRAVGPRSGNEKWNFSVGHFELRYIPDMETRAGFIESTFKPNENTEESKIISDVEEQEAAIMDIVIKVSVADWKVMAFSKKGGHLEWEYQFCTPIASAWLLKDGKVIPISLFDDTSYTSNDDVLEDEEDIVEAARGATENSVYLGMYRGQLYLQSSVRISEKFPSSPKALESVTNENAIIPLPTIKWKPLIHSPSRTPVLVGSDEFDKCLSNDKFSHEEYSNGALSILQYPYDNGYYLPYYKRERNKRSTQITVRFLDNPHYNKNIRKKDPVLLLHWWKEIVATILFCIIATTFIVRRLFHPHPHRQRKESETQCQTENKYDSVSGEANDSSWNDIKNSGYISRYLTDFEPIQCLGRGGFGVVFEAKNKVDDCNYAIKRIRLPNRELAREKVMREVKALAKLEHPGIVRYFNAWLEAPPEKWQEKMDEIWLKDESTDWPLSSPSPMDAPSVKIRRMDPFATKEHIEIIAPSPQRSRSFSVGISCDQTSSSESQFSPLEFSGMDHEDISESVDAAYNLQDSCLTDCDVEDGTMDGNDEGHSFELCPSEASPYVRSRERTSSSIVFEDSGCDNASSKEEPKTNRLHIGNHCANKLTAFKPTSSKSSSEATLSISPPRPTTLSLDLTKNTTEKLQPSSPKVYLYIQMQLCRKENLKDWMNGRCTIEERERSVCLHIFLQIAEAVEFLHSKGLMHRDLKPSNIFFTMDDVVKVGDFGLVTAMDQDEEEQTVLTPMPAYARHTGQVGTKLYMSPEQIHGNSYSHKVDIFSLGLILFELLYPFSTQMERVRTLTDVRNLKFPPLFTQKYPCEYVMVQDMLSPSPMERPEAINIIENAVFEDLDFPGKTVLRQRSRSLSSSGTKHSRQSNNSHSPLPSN

[27] = biological target: T5, Eukaryotic translation initiation factor 2-alpha kinase 3; assay: Counterscreen assay for PERK inhibitors: Dose response cell-based high throughput screening assay to measure inhibition of PERK at 6 hours. [Related pubchem assays: 1522, 1416 ]; assay type: functional

Mothers against decapentaplegic homolog 3, sequence (P84022 whole entry): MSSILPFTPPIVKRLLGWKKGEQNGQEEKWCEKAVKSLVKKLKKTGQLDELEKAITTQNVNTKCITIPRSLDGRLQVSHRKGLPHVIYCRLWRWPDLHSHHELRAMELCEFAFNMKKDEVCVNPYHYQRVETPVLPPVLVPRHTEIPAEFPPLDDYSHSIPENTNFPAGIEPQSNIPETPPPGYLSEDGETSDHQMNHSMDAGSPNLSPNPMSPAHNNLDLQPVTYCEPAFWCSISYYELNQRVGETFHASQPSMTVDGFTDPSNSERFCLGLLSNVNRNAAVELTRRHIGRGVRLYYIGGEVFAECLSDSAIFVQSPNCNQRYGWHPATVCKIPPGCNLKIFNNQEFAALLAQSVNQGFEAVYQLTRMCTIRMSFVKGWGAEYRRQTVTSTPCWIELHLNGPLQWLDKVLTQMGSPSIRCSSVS

COc1cc(C(c2cc3c(cc2O)OCO3)N2CCOCC2)cc(OC)c1OC (stereo not drawn)
IC50 [1]: 9.66 µM (not active)

Oc1c(C(Nc2ccccn2)c2ccccn2)ccc2cccnc12 (stereo not drawn)
EC50 [2]: 17.6 µM (active) | EC50 [3]: 5.87 µM (active) | IC50 [4]: 3.82 µM (active) | AC50 [5]: 6 µM (active) | AC50 [6]: 2.88 µM (active) | IC50 [7]: > 67 µM (not active) | EC50 [8]: 7.44 µM (active) | IC50 [9]: 11.4 µM (active) | EC50 (Streptococcus): 14.8 µM (active) | EC50 (Streptokinase A): > 150 µM (not active) | EC50 (cells [10]): > 350 µM (not active) | AC50 [11]: 4.36 µM (active) | AC50 [12]: 21.9 µM (active) | EC50 [13]: > 20 µM (not active) | AC50 (INS1): 2.79 µM (active) | EC50 (cells [14]): 9.9 µM (active) | IC50 (Nonstructural protein 1): 8.2 µM (active) | EC50 [15]: 1.22 µM (active)

Cc1cccc(C)c1-n1nnnc1SCc1nc(N)nc(N(C)C)n1
EC50 [16]: 8.3 µM (active)

COc1ccc(NC(=O)/C(Cl)=C(/Cl)[S+]([O-])Cc2ccccc2Cl)cn1 (stereo not drawn)
IC50 [17]: 1.36 µM (active) | EC50 (Beta-galactosidase): > 40 µM (inactive) | CC50 (HeLa): 1.43 µM (active) | IC50 [18]: 3.25 µM (active) | IC50 [19]: 4.54 µM (active) | IC50 [20]: 25.3 µM (inactive)

O=C(CSc1ccc2nnc(-c3ccccn3)n2n1)NCc1ccc2c(c1)OCO2
EC50 [21]: > 79.4 µM (not active) | EC50 [22]: > 79.4 µM (not active) | EC50 [23]: > 79.4 µM (not active)

COCCCNC(=O)CC(NS(=O)(=O)c1ccc(C)cc1)c1ccco1 (stereo not drawn)
IC50 [24]: > 100 µM (not active) | IC50 [25]: > 100 µM (not active)

CCSc1nnc(NC(=O)c2cc(-c3ccccc3O)[nH]n2)s1
EC50 [26]: > 55.7 µM (not active) | EC50 [27]: > 55.7 µM (not active)
